Reference: patent US9771560B2, “High-throughput image-based chemical screening in zebrafish blastomere cell culture” (CHILDREN'S MEDICAL CENTER CORPORATION, priority 2012, dated 2017)
“Also recorded” adds a separate entry of the source. Structures can show the parent of a compound that is named as a salt.

Key:
zebrafish embryos = assay: Whole-mount in situ hybridization with myoD riboprobe in chemical-treated zebrafish embryos; format: in vivo; parameters: key to myoD expression: Level 1: decreased myoD staining at different levels, which are indicated in FIG. 9A; Level 2: decreased myoD staining at different levels, which are indicated in FIG. 9A; Level 3: decreased myoD staining at different levels, which are indicated in FIG. 9A; Level 4: decreased myoD staining at different levels, which are indicated in FIG. 9A; details: for myoD expression: embryos treated at the sphere stage, assayed at the 6-somite stage, CHB library chemicals diluted 300-fold, compared with DMSO; for perturbation of muscle development in vivo (myoD riboprobe): treated at the sphere stage, 6-somite stage, diluted 300-fold
Experimental: FIGS. 9A-9C show the chemical genetics screens to identify modifiers of skeletal muscle development (related to FIG. 2) FIG. 9A, Embryos were treated with hits at the sphere stage. Once the control embryos reached the 6-somite stage, they were collected for whole-mount in situ hybridization with the myoD riboprobe. […] Flat mounted embryos stained with the myoD riboprobe at the 6-somite stage are shown with anterior to the left. Embryos were treated with (±)-6-Chloro-PB hydrobromide, LY-294002, 1-ACYL-PAF, or ATRA. All chemicals were from the CHB library and were diluted 300-fold. The level of myoD reduction was determined by comparing the intensity of myoD expression in these embryos with that in control embryos treated with DMSO. FIG. 9B, myf5-GFP; mylz2-mCherry embryos were collected at the oblong stage and disassociated. The resulting blastomere cells were aliquoted into a 96-well plate with pre-added chemicals. The culture medium contained 10 ng/ml bFGF to promote muscle development. Cells were treated with 50 μM tyrphostin AG 879, 50 μM tyrphostin AG 808, 50 μM tyrphostin AG 555, 50 μM PD 98059, 10 μM U0126, 10 μM LY-294002, 10 μM wortmannin, or 20 μM rapamycin. Cells were imaged after 2 days by the Celigo cytometer for GFP, mCherry, and bright-field signals. FIG. 9C, 1-cell-stage myf5-GFP; mylz2-mCherry embryos were injected with 250 pg fgf8-MO and 250 pg fgf24-MO and rescued by adding […] at the dome stage.
Whole mount in situ hybridizations were performed as previously described (Belting et al., 2001).

[1] = tested on: zebrafish blastomere cells; assay: Culture of disassociated myf5-GFP; mylz2-mCherry blastomere cells in zESC medium (validation and pathway inhibitor tests); format: cell-based
Experimental: FIGS. 1A-1E show the chemical genetic screen to identify modifiers of skeletal muscle development. […] The yolk of the double transgenic embryo is mCherry positive, presumptively due to the maternal deposit of mCherry protein. mylz2-mCherry expression is not observed until 32 hpf. Its expression is first detected in anterior somites and then progressively spreads to posterior somites. […] Images were taken 48 hours after plating. Scale bars represent 250 μM. […] Blastomere cells from myf5-GFP; mylz2-mCherry embryos were cultured with or without bFGF and harvested at 24 hours. Results of bFGF treated cells are normalized to the expression of untreated cells. Error bars represent standard deviation (SD) from the triplicate quantitative RT-PCR reaction. All expressions are normalized to β-actin. […] Blastomere cells from myf5-GFP; mylz2-mCherry embryos were cultured with bFGF and harvested at 24 hours. Different populations were isolated by FACS. Results are normalized to the expression of cells of the double negative population. Error bars represent standard deviation (SD) from the triplicate quantitative RT-PCR reaction. All expressions are normalized to β-actin. […] 0.1% DMSO or 100 nM ATRA was added immediately. Images were taken 48 hours after plating. Scale bars represent 250 μM.
FIGS. 9A-9C show the chemical genetics screens to identify modifiers of skeletal muscle development (related to FIG. 2) FIG. 9A, Embryos were treated with hits at the sphere stage. Once the control embryos reached the 6-somite stage, they were collected for whole-mount in situ hybridization with the myoD riboprobe. […] Flat mounted embryos stained with the myoD riboprobe at the 6-somite stage are shown with anterior to the left. Embryos were treated with (±)-6-Chloro-PB hydrobromide, LY-294002, 1-ACYL-PAF, or ATRA. All chemicals were from the CHB library and were diluted 300-fold. The level of myoD reduction was determined by comparing the intensity of myoD expression in these embryos with that in control embryos treated with DMSO. […]

[2] = tested on: human iPSCs (00409, 05400, and BJ)
Experimental: Cells were differentiated by generating EBs in suspension culture 7 days and then transferred to matrigel-coated plates for additional 29 days. During the suspension culture the cells received the differentiation medium STEMDiff Apel medium ([sequence] technologies) supplied with 10 ng/ml bFGF (Invitrogen), 0.5 μM BIO (Santa Cruz Biotechnologies) and 20 μM forskolin (Santa Cruz Biotechnologies). Two-three days after plating EBs, the medium was switched to DMEM complemented with 2% horse serum for the remaining differentiation.
Embryoid bodies (EBs) from BJ, 00409 or 05400 iPSCs were exposed for 7 days to a serum-free differentiation medium containing bFGF (10 ng/ml), BIO (0.5 μM) and forskolin (20 μM) (medium added at day 1, 3 and 5). […] After 7 days, we measured the expression of a panel of markers specific for ectoderm, endoderm or mesoderm to quantify differentiation outcomes.

[3] = tested on: zebrafish blastomere cells; assay: High-throughput image-based chemical screen in myf5-GFP; mylz2-mCherry zebrafish blastomere cell culture with bFGF; details: medium supplemented with bFGF, 384-well, Celigo cytometer
From the text: (§1) FIGS. 2A-2C show the chemical genetic screens to identify modifiers of skeletal muscle development. FIG. 2A is a schematic of a high-throughput image-based chemical screening assay. Approximately 800 myf5-GFP; mylz2-mCherry double transgenic embryos were collected and disassociated at the oblong stage. The resulting blastomere cells were aliquoted into four 384-well plates with pre-added chemicals. We performed duplicates for each chemical to mitigate false positives. After 2 days, the 384-well plates were imaged using a Celigo cytometer. For each well, an image for each signal channel was captured. GFP and mCherry signals were determined by the Celigo cytometer's built-in software and confirmed by eye. […] Most of the hits could be grouped into three categories. […] The phenotype is presumptively due to inhibition of differentiation of muscle progenitors into mature muscle. […] This phenotype is presumptively due to the blocking of muscle progenitor commitment. […] Scale bars represent 250 μM. […] Scale bars represent 250 μM.
Disassociated blastomere cells were grown in zESC medium, which is composed of 70% LDF medium and 30% RTS34st-conditioned medium. The LDF medium contains 50% Leibowitz's L-15 (Invitrogen), 35% DMEM (Invitrogen), and 15% Ham's F-12 (Invitrogen), supplemented with 0.18 g/l sodium bicarbonate, 15 mM HEPES (Invitrogen), 1% L-Glutamine (Invitrogen), 10 μg/ml ciprofloxacin (Sigma-Aldrich), 100 μg/ml piperacillin (Sigma-Aldrich), 10 μg/ml amphotericin B (Sigma-Aldrich), 10 nM sodium selenite (Sigma-Aldrich), 1% N2 (Invitrogen), and 2% B27 (Invitrogen). The RTS34st conditioned medium was prepared by incubating fresh medium (Leibowitz's L-15 plus 15% FBS) on a confluent culture of RTS34st cells for 3 days.
(§2) Four 384-well plates were coated with 0.1% gelatin. Chemicals from the CHB library were diluted 150 times with zESC medium containing 1 ng/ml bFGF and were aliquoted 30 μl per well. Males and females of the myf5-GFP; mylz2-mCherry transgenic line were set up overnight and kept separated until morning when they were mixed for mate. Approximately 800 oblong-stage embryos were washed three times with E3 embryo water and were treated with pronase to remove chorions. Dechorionated embryos were washed with E3 embryo water three times and collected into a 50 ml falcon tube with 25 ml zESC medium containing 1 ng/ml bFGF. Embryos were disassociated by shaking approximately 20 times and were filtered through a 70 μm nylon mesh filter. The resulting single cells were diluted to 60 ml with zESC medium containing 1 ng/ml bFGF and aliquoted 30 μl per well into the four 384-well plates with pre-added chemicals. The cells were cultured in a 28-degree incubator without CO2. Cells were imaged by a Celigo cytometer (Cyntellect) under channels of GFP, mCherry, and transmitted light. The images were analyzed by the built-in software and confirmed eye.
To enable a higher throughput analysis of candidate modifiers of skeletal myogenesis, the embryo culture system was adapted to a semi-automated chemical screening platform. myf5-GFP; mylz2-mCherry embryos were collected from double transgenic parents and disassociated at the oblong stage. […] After one day, the cells were automatically imaged and analyzed using a Celigo cytometer for GFP, mCherry, and bright-field signals, and image analysis was confirmed by visual inspection (FIG. 2A).

[4] = tested on: zebrafish blastomere cells; assay: Sensitized chemical screen in zebrafish blastomere cell culture in the absence of bFGF; format: cell-based
From the text: as §1, §2
The strong muscle promoting effect of bFGF made it difficult to identify enhancers of skeletal muscle development in our original system. Only one out of 2,400 chemicals was identified to promote muscle development. To sensitize the system for identifying enhancers of skeletal muscle development, we repeated the screen in the absence of bFGF. […] Among the six hits were three GSKβ inhibitor (kenpaullone, SB415286, and SB216763), two calpain inhibitors (E-64-D and MDL28170) and one cAMP activator forskolin.

Cl.Oc1cc2c(c(Cl)c1O)CCNCC2c1ccccc1 (racemic) [(±)-6-Chloro-PB hydrochloride]
myoD expression (zebrafish embryos): Level 1
perturbation of muscle development in vivo (myoD riboprobe) (zebrafish embryos): verified to perturb muscle development in vivo

CCCC[N+]1(C)[C@@H]2C[C@@H](OC(=O)[C@H](CO)c3ccccc3)C[C@H]1[C@@H]1O[C@@H]12.[Br-] (single isomer, unassigned; (-)) [(-)-Scopolamine, n-Butyl-, bromide]
myoD expression (zebrafish embryos): Level 1

CC1=C(/C=C/C(C)=C/C=C/C(C)=C/C(=O)O)C(C)(C)CCC1 [ATRA, all-trans retinoic acid]
skeletal muscle development in vitro ([1]; zESC medium with bFGF, 100 nM ATRA, images 48 hours after plating): blocked skeletal muscle development; also recorded: blocks muscle development in vitro
myoD expression (zebrafish embryos): Level 4
perturbation of muscle development in vivo (myoD riboprobe) (zebrafish embryos): verified to perturb muscle development in vivo

O=C1Nc2cc(Br)ccc2/C1=C1/Nc2ccccc2/C1=N\O [BIO, 6-Bromoindirubin-3′-oxime]
toxicity compared with other GSK3β antagonists [2]: lower toxicity

CCCNC(=O)[C@H]1O[C@@H]1C(=O)N[C@H](C(=O)N1CCC[C@H]1C(=O)OC)[C@@H](C)CC [CA-074-Me]
change of myf5-GFP and mylz2-mCherry signals (hit category) [3]: only myf5-GFP expression

CCOC(=O)[C@H]1O[C@@H]1C(=O)N[C@@H](CC(C)C)C(=O)NCCC(C)C [E-64-D]
GFP and mCherry signals [4]: increase the GFP and mCherry signals

C=C1C(=O)O[C@@H]2C[C@@H](C)[C@@H]3C=CC(=O)[C@@]3(C)[C@@H](O)[C@H]12 [Helenalin]
myoD expression (zebrafish embryos): Toxic

O=c1cc(N2CCOCC2)oc2c(-c3ccccc3)cccc12 [LY-294,002 hydrochloride]
myoD expression (zebrafish embryos): Level 2

CN(Cc1cnc2nc(N)nc(N)c2n1)c1ccc(C(=O)N[C@@H](CCC(=O)O)C(=O)O)cc1 [Methotrexate]
myoD expression (zebrafish embryos): No change

COCC(=O)O[C@]1(CCN(C)CCCc2nc3ccccc3[nH]2)CCc2cc(F)ccc2[C@@H]1C(C)C.Cl.Cl [Miberfradil dihydrochloride]
myoD expression (zebrafish embryos): Level 2

CO[C@H]1C[C@@H]2CC[C@@H](C)[C@@](O)(O2)C(=O)C(=O)N2CCCC[C@H]2C(=O)O[C@H]([C@H](C)C[C@@H]2CC[C@@H](O)[C@H](OC)C2)CC(=O)[C@H](C)/C=C(\C)[C@@H](O)[C@@H](OC)C(=O)[C@H](C)C[C@H](C)/C=C/C=C/C=C/1C [Rapamycin]
myoD expression (zebrafish embryos): Level 2

Cl.NCCNC(=O)c1ncsc1-c1cccc(F)c1 [Ro 41-1049 hydrochloride]
change of myf5-GFP and mylz2-mCherry signals (hit category) [3]: decreased amount of both fluorescent colors
myoD expression (zebrafish embryos): Level 4

Cn1cc(C2=C(c3ccc(Cl)cc3Cl)C(=O)NC2=O)c2ccccc21 [SB216763]
GFP and mCherry signals [4]: increase the GFP and mCherry signals

O=C1NC(=O)C(c2ccccc2[N+](=O)[O-])=C1Nc1ccc(O)c(Cl)c1 [SB415286]
change of myf5-GFP and mylz2-mCherry signals (hit category) [3]: increased expression of both markers
GFP and mCherry signals [4]: increase the GFP and mCherry signals

NC(=O)c1ccc(-c2nc(-c3ccccn3)c(-c3ccc4c(c3)OCO4)[nH]2)cc1 [SB-431542]
myoD expression (zebrafish embryos): No change

Cl.Cl.Cl.NCCCCNCCCN [Spermidine trihydrochloride]
myoD expression (zebrafish embryos): Level 1

Clc1cnc(Oc2ccc(Oc3ncc(Cl)cc3Cl)cc2)c(Cl)c1 [TCPOBOP]
change of myf5-GFP and mylz2-mCherry signals (hit category) [3]: only myf5-GFP expression

N#C/C(=C\c1c[nH]c2ccccc12)C(=O)c1ccc(O)c(O)c1 [Tyrphosfin AG 808]
myoD expression (zebrafish embryos): Level 1

C[C@@H](NC(=O)/C(C#N)=C/c1ccc(O)c(O)c1)c1ccccc1 [Tyrphostin AG 527]
myoD expression (zebrafish embryos): No Change; also recorded: Level 1

CC(C)(C)c1cc(/C=C(\C#N)C(N)=S)cc(C(C)(C)C)c1O [Tyrphostin AG 879]
change of myf5-GFP and mylz2-mCherry signals (hit category) [3]: decreased amount of both fluorescent colors
myoD expression (zebrafish embryos): Toxic

O=C1Cc2c([nH]c3ccc(Br)cc23)-c2ccccc2N1 [kenpaullone, 9-bromopaullone]
GFP and mCherry signals [4]: increase the GFP and mCherry signals

MDL28170
GFP and mCherry signals [4]: increase the GFP and mCherry signals

basic fibroblast growth factor [bFGF]
GFP and mCherry expression of cultured blastomere cells ([1]; bFGF added to zESC medium): majority of cells became GFP and mCherry double positive
expression of other myogenic genes (myoD, mrf4, myog), quantitative RT-PCR ([1]; cultured with bFGF, harvested at 24 hours): highly expressed
